Assay results published in publication PMC8466300, “Investigating the Central Nervous System Disposition of Actinomycin D: Implementation and Evaluation of Cerebral Microdialysis and Brain Tissue Measurements Supported by UPLC-MS/MS Quantification” (Pharmaceutics, 2021).
Read-outs that look alike come from different tables or passages of the source. *1 amine or outer side, *2 acyl side, *3 side chain or, on linkers, in order; H or OH if unused. Where a SMILES comes first, the peptide text is derived from it. Bridges are numbered along the chain shown (N, C = ends). Roman numbers before positions name the chains, in order. [ ]: non-standard residue; d: D form. Actinocin(9to1) = Cc1c2oc3c(C)ccc(C(=O)[*:1])c3nc-2c(C(=O)[*:2])c(N)c1=O; NMeV = CN[C@H](C(=O)O)C(C)C; Sar = CNCC(=O)O

Legend:
[1] = Procedure: (§1) To confirm the P-gp substrate characteristics of actinomycin D, we conducted growth inhibition and uptake assays in a cell line over-expressing human P-gp/ABCB1 (L-MDR1 cells) in comparison to the respective parental cell line (LLC-PK1). L-MDR1 cells were kindly provided by A. H. Schinkel (The Netherlands Cancer Institute, Division of Experimental Therapy, Amsterdam, The Netherlands). The cells were cultured under standard cell culture conditions with medium M199 supplemented with 10% FCS, 2 mM glutamine, 100 U/mL penicillin, and 100 µg/mL streptomycin sulfate. The culture medium for L-MDR1 was supplemented with 0.64 µM vincristine to maintain P-gp/ABCB1 expression. One day before using the cells in the assays, both cell lines were fed with vincristine-free culture medium.
(§2) The assays were performed in quadruplicate, as described previously, using ten concentrations of actinomycin D from 0.0005–10 µM in octuplets.
(§3) Calibration curves were determined with 1/x^2 weighted linear regression using peak area ratios of the analyte to IS. This calculation was performed using the software TargetLynx V4.2 (Waters, Milford, MA, USA). Plasma pharmacokinetics were determined with the software Kinetica (v 5.0; Thermo Fisher Scientific, Waltham, MA, USA). Standard calculations were performed using Microsoft Office Excel 2010 ([…]). Concentration–response curves and IC50 values were calculated by GraphPad Prism version 9.0.0 (GraphPad Software Inc., La Jolla, CA, USA) according to a sigmoid Emax model.

LLC-PK1 cells = settings: read-out: IC50 (proliferation); LLC-PK1 parental cells; four experiments, each concentration in octuplet; ten concentrations 0.0005–10 µM; sigmoid Emax model
Procedure: as §1, §2, §3

[2] = tested on: L-MDR1 cells (over-expressing human P-gp/ABCB1); settings: ratio of IC50 in P-gp over-expressing versus parental cells
Procedure: as §1, §2, §3

[3] = female NSG mice, 0.5 mg/kg i.v. bolus, estimates; for Cmax: plasma at 0.75, 6, 22 h, UPLC-MS/MS; for t1/2 (half-life): plasma up to 22 h; for AUC (extrapolated to infinity): plasma
Procedure: (§4) The experiments were carried out in accordance with the European regulations for care and use of laboratory animals (2010/63/EU) under the German license number G-187/18 and the internal reference number DKFZ374, approved by the responsible regional council (Regierungspräsidium Karlsruhe, Germany). Female 8-week-old NSG mice (NOD.Cg-Prkdc^scid Il2rg^tm1Wjl/SzJ-NOD-SCID gamma-mice) with a weight of approximately 25 g were used for the studies. […] Mice received analgesia (metamizole) and anesthesia with isoflurane during surgery. […] Therefore, we chose to take blood samples 0.75, 6, and 22 h after intravenous bolus injection into the tail vein for the assay’s feasibility pharmacokinetic experiment. […] Full blood samples were transferred into citrate tubes (Sarstedt, Germany) and centrifuged at 1600× g for 10 min to generate plasma samples, which were stored at −80 °C until analysis. […] For validation of the UPLC-MS/MS quantification, blank plasma from 6 naïve mice was used and blank brain tissue was obtained from 2 unexposed mice.
(§5) For protein precipitation of plasma microsamples, an excess of ACN (50 µL) with 0.1% FA containing the IS was applied to an Impact® 96-well protein precipitation plate (Phenomenex, Torrance, CA, USA). Subsequently, 20 µL of the plasma samples were added and the plates sealed and shaken for 1 min. […] For protein depletion, samples were filtered into a 96-well collection plate (Waters, Milford, MA, USA) by applying positive pressure with a 96-well positive pressure unit (Waters, Milford, MA, USA) operated with air overpressure of 5 psi. After addition of 40 µL of water containing 0.1% FA, the collection plates were sealed, shaken, and extracts injected onto the UPLC system.

[4] = Non-specific binding to microdialysis equipment; assay type: physicochemical; settings: in vitro; polypropylene sampling tubes; reduced by BSA ≥1% in Ringer solution
Procedure: In preparation of the cerebral microdialysis, we first investigated the adsorption and recovery characteristics of the microdialysis probes, tubing, and pump system, to test the validity of the microdialysis determinations. […] In order to reduce nonspecific binding, BSA supplement of the microdialysis buffer was tested in different concentrations, ranging from 0.1 to 2%. […] Therefore, 1% BSA in Ringer solution was used for all microdialysis experiments.

[5] = 7 months at −20 °C; cited from earlier work
[6] = N = 3, UPLC-MS/MS; for Freeze-and-thaw stability, accuracy: plasma, three freeze-and-thaw cycles separated by at least 24 h
Procedure: Accuracy was calculated as the percentage of the ratio of the mean determined concentration in individual analytical runs and the nominal value. Precision was expressed in percent and is defined as the coefficient of variation of the measured sample concentrations at each QC level. Three validation runs were analyzed, each containing eight calibration samples in duplicate determination and four QC samples at LLOQ, and low, mid, and high QC concentration in six replicates. Selectivity was evaluated using blank plasma samples from six naïve mice and brain tissue homogenates from two mice. Extraction recovery was calculated from peak areas after extraction from the QC samples divided by the respective peak areas obtained from blank plasma spiked after extraction. Matrix effects were evaluated by comparison of the peak areas of the blank plasma samples spiked after extraction with the respective peak areas of matrix-free UPLC solvent samples spiked with the identical amount. Stability of the analyte was tested in three freeze-and-thaw cycles separated by at least 24 h, in plasma samples stored for 1 month at −25 °C, in microdialysate stored at room temperature for 2 d, and in extracts left in the autosampler for 24 h. Additionally, an incurred sample reanalysis was performed for all plasma samples with sufficient volume for reanalysis.

[7] = rapid equilibrium dialysis, 12 h, 37 °C
Procedure: To determine the previously unknown unbound fraction of actinomycin D in plasma and brain tissue homogenate, we performed rapid equilibrium dialysis (RED) in duplicate. For this, samples were spiked with drug solutions that were prepared in plasma or brain tissue homogenate to obtain minimally diluted samples (30 ng/mL for plasma and 30 ng/g for brain tissue). The free actinomycin D tissue fraction was also quantified in a pooled sample of brain tissue homogenates from the three mice euthanized 2 h after dosing. Determinations were performed on a RED apparatus (ThermoFisher Scientific, Waltham, MA, USA) according to the manufacturer´s instructions under gentle agitation for 12 h at 37 °C.

P-gp = settings: cited from earlier work
in vivo = settings: female, mouse, plasma, iv, 0.5 mg/kg; for level at 6 h / level at 22 h: NSG (NOD.Cg-Prkdc^scid Il2rg^tm1Wjl/SzJ), plasma actinomycin D concentration, incurred sample reanalysis table
Procedure: as §4, §5

With `Cc1c2oc3c(C)ccc(C(=O)N[C@@H]4C(=O)N[C@H](C(C)C)C(=O)N5CCC[C@H]5C(=O)N(C)CC(=O)N(C)[C@@H](C(C)C)C(=O)O[C@@H]4C)c3nc-2c(C(=O)N[C@@H]2C(=O)N[C@H](C(C)C)C(=O)N3CCC[C@H]3C(=O)N(C)CC(=O)N(C)[C@@H](C(C)C)C(=O)O[C@@H]2C)c(N)c1=O` [actinomycin D, Actinomycin D] (I: T[dV]P[Sar][NMeV] / II: T[dV]P[Sar][NMeV]; ester I:1-I:C, II:1-II:C; linker I:N-II:N via Actinocin(9to1)) the IC50 [1] was 2400 ± 600 nM, the IC50 (LLC-PK1 cells) was 21 ± 6 nM and the “difference of IC50 L-MDR1 versus LLC-PK1” value [2] was > 100 fold. For the same molecule, the Cmax ([3]; mouse 1) was 22.6 ng/mL, the Cmax ([3]; mouse 2) was 14.6 ng/mL and the Cmax ([3]; mouse 3) was 10.3 ng/mL. For the same molecule, the “t1/2 (half-life)” value ([3]; mouse 1) was 5.07 h, the “t1/2 (half-life)” value ([3]; mouse 2) was 6.14 h and the “t1/2 (half-life)” value ([3]; mouse 3) was 6.90 h. For the same molecule, the “AUC (extrapolated to infinity)” value ([3]; mouse 1) was 171 ng·h/mL, the “AUC (extrapolated to infinity)” value ([3]; mouse 2) was 111 ng·h/mL and the “AUC (extrapolated to infinity)” value ([3]; mouse 3) was 101 ng·h/mL. For the same molecule, the “Cl (clearance)” value ([3]; mouse 1) was 1.22 mL/min, the “Vss (volume of distribution)” value ([3]; mouse 1) was 0.53 L and the “Cl (clearance)” value ([3]; mouse 2) was 1.87 mL/min. The “Vss (volume of distribution)” value ([3]; mouse 2) was 0.98 L, the “Cl (clearance)” value ([3]; mouse 3) was 2.06 mL/min and the “Vss (volume of distribution)” value ([3]; mouse 3) was 1.23 L. For the same molecule, the “non-specific binding to microdialysis equipment” value [4] was “substantially adhered”, the “long-term stability in human plasma” value [5] was “has already been demonstrated” and the “1-month plasma stability at -25 °C, accuracy” value (“1-month plasma stability” for short) ([6]; High QC 60.0 ng/mL) was 100.7%. The “1-month plasma stability” value ([6]; Low QC 0.150 ng/mL) was 95.6%, the “1-month plasma stability” value ([6]; Medium QC 3.00 ng/mL) was 98.3% and the “Freeze-and-thaw stability, accuracy” value ([6]; High QC 60.0 ng/mL) was 87.6%. The “Freeze-and-thaw stability, accuracy” value ([6]; Low QC 0.150 ng/mL) was 93.6%, the “Freeze-and-thaw stability, accuracy” value ([6]; Medium QC 3.00 ng/mL) was 92.0% and the “free fraction in spiked brain tissue homogenate” value ([7]; minimally diluted homogenate spiked at 30 ng/g, duplicate, UPLC-MS/MS) was 3.4%. For the same molecule, the “free fraction in brain tissue homogenate of dosed mice” value ([7]; pooled homogenates of three mice 2 h after 0.5 mg/kg i.v., estimated from response values below LLOQ) was < 3%, the “brain exposure in P-gp knockout mice relative to wildtype mice” value (P-gp) was 2.3 fold and the level at 6 h (in vivo; incurred reanalysis, mouse # 6, sampling 6 h) was 1.17 ng/mL. It also gave a level at 22 h (in vivo; incurred reanalysis, mouse # 6, sampling 22 h) of 1.16 ng/mL, a level at 6 h (in vivo; incurred reanalysis, mouse # 7, sampling 6 h) of 5.23 ng/mL and a level at 22 h (in vivo; incurred reanalysis, mouse # 7, sampling 22 h) of 5.17 ng/mL. It also gave a level at 6 h (in vivo; original analysis, mouse # 6, sampling 6 h) of 1.31 ng/mL, a level at 22 h (in vivo; original analysis, mouse # 6, sampling 22 h) of 1.36 ng/mL and a level at 6 h (in vivo; original analysis, mouse # 7, sampling 6 h) of 5.51 ng/mL. For the same molecule, the level at 22 h (in vivo; original analysis, mouse # 7, sampling 22 h) was 4.48 ng/mL, the AUC(0-inf) (in vivo; NSG) was 128 ± 31 ng·h/mL and the Cmax (in vivo; NSG) was 15.8 ± 5.1 ng/mL. For the same molecule, the Vd (in vivo; NSG) was 1.1 ± 0.35 L and the half-life (in vivo; NSG) was 6.04 ± 0.75 h.
